# Data as given in paper PMC12155096 (International Journal of Molecular Sciences, 2025).
# Read-outs that look alike come from different tables or passages of the source.
# Tests used:
# human CYP2C19 [1] = target: T1, human CYP2C19 (Homo sapiens, UniProt P33261); experiment: biochemical
# human CYP1A2 [2] = target: T2, human CYP1A2 (Homo sapiens, UniProt P05177); experiment: biochemical
# T2 sequence (P05177 1-516): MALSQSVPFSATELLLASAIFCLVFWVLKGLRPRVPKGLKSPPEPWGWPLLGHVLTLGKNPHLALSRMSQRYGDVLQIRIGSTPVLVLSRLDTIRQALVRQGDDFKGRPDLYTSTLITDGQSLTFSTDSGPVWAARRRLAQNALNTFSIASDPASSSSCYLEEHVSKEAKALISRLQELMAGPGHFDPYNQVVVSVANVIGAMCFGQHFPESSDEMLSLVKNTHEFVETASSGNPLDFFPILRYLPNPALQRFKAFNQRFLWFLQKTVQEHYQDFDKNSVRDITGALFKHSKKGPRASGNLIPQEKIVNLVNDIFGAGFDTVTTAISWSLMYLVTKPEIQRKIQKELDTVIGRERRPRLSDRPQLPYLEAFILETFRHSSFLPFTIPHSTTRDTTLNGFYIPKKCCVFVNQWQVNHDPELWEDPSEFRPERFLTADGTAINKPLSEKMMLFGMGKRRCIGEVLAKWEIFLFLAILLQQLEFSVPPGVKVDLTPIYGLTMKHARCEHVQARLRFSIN
# CYP3A4 = CYP3A4 (Homo sapiens, UniProt P08684); experiment: biochemical
# human CYP2D6 = human CYP2D6 (Homo sapiens, UniProt P10635)
# human CYP2C9 [3] = target: T3, human CYP2C9 (Homo sapiens, UniProt P11712); experiment: biochemical
# human CYP2C19 [4] = target: T1, human CYP2C19
# human CYP1A2 [5] = target: T2, human CYP1A2
# human CYP2C9 [6] = target: T3, human CYP2C9
# [7] = CYP2C19 AC50 (half-maximal activity concentration)
# [8] = CYP1A2 AC50 (half-maximal activity concentration)
# [9] = CYP3A4 AC50 (half-maximal activity concentration)
# [10] = CYP2C9 AC50 (half-maximal activity concentration)
# T1 sequence (P33261 whole entry): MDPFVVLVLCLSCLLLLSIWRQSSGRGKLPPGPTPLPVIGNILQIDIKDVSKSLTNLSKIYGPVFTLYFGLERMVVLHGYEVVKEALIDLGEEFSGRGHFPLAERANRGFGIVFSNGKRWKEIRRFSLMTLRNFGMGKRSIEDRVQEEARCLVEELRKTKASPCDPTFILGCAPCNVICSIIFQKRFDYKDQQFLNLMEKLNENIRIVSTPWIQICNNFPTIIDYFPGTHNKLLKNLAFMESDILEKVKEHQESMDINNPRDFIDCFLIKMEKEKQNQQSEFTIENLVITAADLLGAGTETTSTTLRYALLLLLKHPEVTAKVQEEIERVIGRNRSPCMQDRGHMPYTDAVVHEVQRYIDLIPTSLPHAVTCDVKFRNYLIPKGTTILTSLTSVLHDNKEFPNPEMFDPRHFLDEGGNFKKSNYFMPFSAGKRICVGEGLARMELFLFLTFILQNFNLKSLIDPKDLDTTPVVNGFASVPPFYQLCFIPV
# Chain of human CYP2D6 (P10635 whole entry): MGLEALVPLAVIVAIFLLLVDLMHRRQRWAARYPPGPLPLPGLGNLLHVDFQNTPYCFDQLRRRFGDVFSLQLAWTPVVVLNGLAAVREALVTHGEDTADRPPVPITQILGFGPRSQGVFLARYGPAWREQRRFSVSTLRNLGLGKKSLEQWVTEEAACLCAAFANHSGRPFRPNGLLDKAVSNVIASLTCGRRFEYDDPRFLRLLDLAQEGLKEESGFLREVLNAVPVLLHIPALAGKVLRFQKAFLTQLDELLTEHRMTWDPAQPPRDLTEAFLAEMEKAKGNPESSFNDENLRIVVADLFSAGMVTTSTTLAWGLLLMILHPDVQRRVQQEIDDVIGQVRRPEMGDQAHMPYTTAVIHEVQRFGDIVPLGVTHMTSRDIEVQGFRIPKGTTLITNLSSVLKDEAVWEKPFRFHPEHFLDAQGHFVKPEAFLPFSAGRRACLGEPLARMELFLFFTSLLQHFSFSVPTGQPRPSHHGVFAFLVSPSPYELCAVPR
# T3 sequence (P11712 whole entry): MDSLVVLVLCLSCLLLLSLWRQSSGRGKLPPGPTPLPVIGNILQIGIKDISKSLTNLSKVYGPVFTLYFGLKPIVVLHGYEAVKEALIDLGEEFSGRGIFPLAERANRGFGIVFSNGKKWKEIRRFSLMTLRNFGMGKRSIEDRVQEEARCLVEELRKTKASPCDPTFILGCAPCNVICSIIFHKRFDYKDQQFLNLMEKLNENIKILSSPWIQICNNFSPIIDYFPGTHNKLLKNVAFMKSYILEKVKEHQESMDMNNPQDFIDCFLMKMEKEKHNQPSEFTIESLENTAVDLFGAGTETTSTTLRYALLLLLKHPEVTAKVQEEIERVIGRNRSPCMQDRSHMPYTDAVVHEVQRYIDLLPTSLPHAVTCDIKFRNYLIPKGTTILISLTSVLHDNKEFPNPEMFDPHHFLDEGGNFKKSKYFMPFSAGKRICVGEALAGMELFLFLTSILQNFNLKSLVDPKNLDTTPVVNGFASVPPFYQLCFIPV
# Chain of CYP3A4 (P08684 whole entry): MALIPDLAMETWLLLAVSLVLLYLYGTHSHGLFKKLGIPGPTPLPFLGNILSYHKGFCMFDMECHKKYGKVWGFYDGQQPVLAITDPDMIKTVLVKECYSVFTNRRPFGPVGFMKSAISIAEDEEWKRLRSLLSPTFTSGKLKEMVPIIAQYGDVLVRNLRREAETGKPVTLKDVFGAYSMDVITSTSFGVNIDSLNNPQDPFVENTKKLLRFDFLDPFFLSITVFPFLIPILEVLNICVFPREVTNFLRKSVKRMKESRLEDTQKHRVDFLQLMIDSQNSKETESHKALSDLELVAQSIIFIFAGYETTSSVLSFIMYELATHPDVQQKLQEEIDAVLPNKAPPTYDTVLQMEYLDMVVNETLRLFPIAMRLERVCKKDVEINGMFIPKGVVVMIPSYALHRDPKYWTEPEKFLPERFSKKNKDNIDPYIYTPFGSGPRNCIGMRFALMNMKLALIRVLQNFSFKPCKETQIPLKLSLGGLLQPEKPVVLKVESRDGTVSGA
SMILES,AC50 (human CYP2C19 [1]; [7]),AC50 (human CYP1A2 [2]; [8]),AC50 (CYP3A4; [9]),CYP2D6 AC50 (half-maximal activity concentration) (human CYP2D6),AC50 (human CYP2C9 [3]; [10]),CYP2C19 AC50 (half-maximal activity concentration) (human CYP2C19 [4]),AC50 (human CYP2C19 [1]),AC50 (human CYP1A2 [2]),AC50 (CYP3A4),AC50 (human CYP2C9 [3]),CYP1A2 AC50 (half-maximal activity concentration) (human CYP1A2 [5]),CYP2C9 AC50 (half-maximal activity concentration) (human CYP2C9 [6])
CN(C)C(=O)C(c1ccccc1)c1ccccc1 [Diphenamid],53.7 µM,50.2 µM,31.2 µM,Inactive,38.4 µM,,,,,,,
N#Cc1c[nH]cc1-c1cccc2c1OC(F)(F)O2 [Fludioxonil],5.3 µM,1.53 µM,5.11 µM,Inactive,18.6 µM,,,,,,,
CCC(C)c1cc([N+](=O)[O-])cc([N+](=O)[O-])c1O (stereo not drawn) [Dinoseb],76.8 µM,58.1 µM,33.9 µM,,,,,,,,,
"c1cnc2c(c1)ccc1cccnc12 [1,10-Phenanthroline]",11.9 µM,11.7 µM,69.5 µM,Inconclusive inhibitor,4.65 µM,,,,,,,
O=C(c1ccccc1)C1CCCCC1 [Cyclohexylphenylketone],44.9 µM,37.4 µM,29.2 µM,Inactive,47.5 µM,,,,,,,
CC(C)N(C(=O)COc1nnc(C(F)(F)F)s1)c1ccc(F)cc1 [Flufenacet],3.4 µM,37 µM,19.3 µM,Inactive,35.6 µM,,,,,,,
Oc1c(Br)c(Br)c(Br)c(Br)c1Br [Pentabromophenol],,57.8 µM,70.2 µM,Inactive,30.1 µM,Inconclusive,,,,,,
CCC1OCC(COc2ccc(Oc3ccccc3)cc2)O1 (stereo not drawn) [Diofenolan],,,,Inconclusive inhibitor,,,21 µM,30.8 µM,35.7 µM,29.4 µM,,
CCOC(=O)C1OC1(C)c1ccccc1 (stereo not drawn) [Ethyl methylphenylglycidate],45.4 µM,34.6 µM,37.7 µM,Inconclusive inhibitor,61.4 µM,,,,,,,
Cc1c(C)c([N+](=O)[O-])c(C(C)(C)C)c([N+](=O)[O-])c1C,22.8 µM,17.5 µM,12.2 µM,Inactive,51.7 µM,,,,,,,
CCCCCCCCCC(C)C=O (stereo not drawn) [2-Methylundecanal],,74.2 µM,87.3 µM,Inactive,65.1 µM,Inconclusive inhibitor,,,,,,
"CC(C)OC(=O)COc1ccc(Cl)cc1Cl [2,4-D isopropyl ester]",15.5 µM,13.6 µM,7.02 µM,Inconclusive inhibitor,35 µM,,,,,,,
CC(COc1ccc(Oc2ccccc2)cc1)Oc1ccccn1 (stereo not drawn) [Pyriproxyfen],12.4 µM,17.3 µM,29.7 µM,Inactive,12 µM,,,,,,,
CCNc1nc(NC(C)C)nc(SC)n1 [Ametryn],,9.81 µM,29.2 µM,Inactive,20.8 µM,Inconclusive inhibitor,,,,,,
O=[N+]([O-])c1cc(C2CCCCC2)c(O)c([N+](=O)[O-])c1 [Dinex],39.8 µM,71.1 µM,22.5 µM,Inconclusive inhibitor,8.27 µM,,,,,,,
CCOCCOC(=O)C=Cc1ccc(OC)cc1 [Cinoxate],29.2 µM,7.48 µM,21.9 µM,Inactive,13.9 µM,,,,,,,
CC(C)(C)c1ccc(CSc2cnn(C(C)(C)C)c(=O)c2Cl)cc1 [Pyridaben],8.29 µM,25.6 µM,4.7 µM,Inactive,7.2 µM,,,,,,,
Oc1c(Cl)c(Cl)c(Cl)c(Cl)c1Cl [Pentachlorophenol],52.3 µM,67.4 µM,54.4 µM,Inactive,,,,,,,,
"Oc1c(Cl)ccc(Cl)c1Cl [2,3,6-Trichlorophenol]",,37 µM,55.4 µM,Inconclusive inhibitor,35.7 µM,Inconclusive inhibitor,,,,,,
CCOC(=O)CCCCCCCCC(=O)OCC [Diethyl decanedioate],,35.2 µM,26.2 µM,Inactive,42.2 µM,Inconclusive inhibitor,,,,,,
O=C(Oc1ccccc1)c1ccccc1 [Phenyl benzoate],,,,Inactive,,Inactive,,71 µM,58.7 µM,62.1 µM,,
"Oc1c(Cl)cc(Cl)c(Cl)c1Cl [2,3,4,6-Tetrachlorophenol]",,57.1 µM,67 µM,Inactive,28.3 µM,Inactive,,,,,,
"O=C(O)c1cc(I)cc(I)c1I [2,3,5-Triiodobenzoic acid]",,57.3 µM,75.1 µM,Inactive,20.9 µM,Inconclusive inhibitor,,,,,,
O=C1OC(=O)c2c(Cl)c(Cl)c(Cl)c(Cl)c21 [Tetrachlorophthalic anhydride],89.4 µM,,34.7 µM,Inconclusive inhibitor,,,,,,,Inactive,Inactive
"Oc1c(Cl)c(Cl)cc(Cl)c1Cl [2,3,5,6-Tetrachlorophenol]",,66.6 µM,58.1 µM,Inactive,22.7 µM,Inconclusive inhibitor,,,,,,
CC=CC(=O)N(CC)c1ccccc1C (mixture of isomers) [Crotamiton],,31.4 µM,7.51 µM,Inactive,40.1 µM,Inconclusive inhibitor,,,,,,
CCC1(c2ccccc2)CCC(=O)NC1=O (stereo not drawn) [Glutethimide],,,26 µM,Inactive,,Inconclusive inhibitor,,,,,Inactive,Inconclusive inhibitor
CC(C)(C)c1cc([N+](=O)[O-])cc([N+](=O)[O-])c1O [Dinoterb],,48 µM,24.7 µM,Inconclusive inhibitor,17.8 µM,Inconclusive inhibitor,,,,,,
CCCCCCCCCCCCN1CCCC1=O [1-Dodecyl-2-pyrrolidinone],,,,Inactive,,Inconclusive inhibitor,,29.7 µM,9.84 µM,37.9 µM,,
"Oc1nc(Cl)c(Cl)cc1Cl [3,5,6-Trichloro-2-pyridinol]",,47.9 µM,65.8 µM,Inconclusive inhibitor,45.4 µM,Inconclusive inhibitor,,,,,,
